Among the data in patent US7585864B2, “Farnesyl protein transferase inhibitors and their use to treat cancer” (Schering Corporation, priority 2004, dated 2009) are IC50 values, retold here.

In experiment [1] the target is purified human farnesyl protein transferase (Homo sapiens, UniProt P49354+P49356). Put plainly: FPT IC50 Assay. To be noted: transfer of [3H] farnesyl to biotinylated H-ras peptide (biotin-CVLS), 37° C., 60 minutes. Type of experiment: biochemical. Here is the method: FPT activity was determined by measuring the transfer of [^3H] farnesyl from [^3H] farnesyl pyrophosphate to a biotinylated peptide derived from the C-terminus of H-ras (biotin-CVLS). The reaction mixture contains: 50 mM Tris pH7.7, 5 mM MgCl2, 5 μM Zn^++, 5 mM DTT, 0.1% Triton-X, 0.05 μM peptide, 0.03 nM purified human farnesyl protein transferase, 0.180 μM [^3H] farnesyl pyrophosphate, plus the indicated concentration of tricyclic compound or vehicle control in a total volume of 100 μl. The reaction was incubated in a Vortemp shaking incubator at 37° C., 45 RPM for 60 minutes and stopped with 150 μl of 0.25 M EDTA containing 0.5% BSA and 1.3 mg/ml Streptavidin SPA beads. Radioactivity was measured in a Wallach 1450 Microbeta liquid scintillation counter. Percent inhibition was calculated relative to the vehicle control.

Experiment [2] relates to Human tumor cells. Description: Soft Agar Assay (anchorage-independent growth). In kind it is cell-based. As to conditions: colony outgrowth in 0.3% agarose, 10-16 days, MTT staining. The protocol: Anchorage-independent growth is a characteristic of tumorigenic cell lines. Human tumor cells can be suspended in growth medium containing 0.3% agarose and an indicated concentration of a farnesyl transferase inhibitor. The solution can be overlayed onto growth medium solidified with 0.6% agarose containing the same concentration of farnesyl transferase inhibitor as the top layer. After the top layer is solidified, plates can be incubated for 10-16 days at 37° C. under 5% CO2 to allow colony outgrowth. After incubation, the colonies can be stained by overlaying the agar with a solution of MTT (3-[4,5-dimethyl-thiazol-2-yl]-2,5-diphenyltetrazolium bromide, Thiazolyl blue) (1 mg/mL in PBS). Colonies can be counted and the IC50's can be determined.

pIC50: −log10 of the molar value.

Broadly, the pIC50 is the negative decadic logarithm of the IC50, by convention in mol/L. Take `Cc1cn(CCCN(Cc2ccccc2)C(=O)[C@H]2CN([C@H]3c4ccc(Cl)cc4OCc4cccnc43)CCN2C(=O)OC(C)(C)C)cn1` [Example 1]: the pIC50 in experiment [1] was 8.52; in experiment [2], 7.55.

Turning to `Cc1cn(C[C@@H]2CCCN(C(=O)[C@@H]3CN([C@H]4c5ccc(Cl)cc5OCc5cccnc54)CCN3C(=O)OC(C)(C)C)C2)cn1` [Example 4], the negative-log IC50 (pIC50) is 9.92 in experiment [1] and over 8.30 in experiment [2]. `Cc1cn(C[C@@H]2CCCN(C(=O)[C@H]3CN([C@@H]4c5ccc(Cl)cc5OCc5cccnc54)CCN3C(=O)OC3CCCCC3)C2)cn1` [Example 11] gave a pIC50 in experiment [1] of 9.80.
